Measurements from US8933046B2 (priority 2009, dated 2015).

Tests used:
A549 cells = assay: Influence of TG003 on cell viability (WST-1 assay); type: cell-based, human; settings: TG003 50 μM
Method: FIG. 18|Influence of the chemical CLK1 inhibitor TG003 on cell viability. A549 cells were incubated with TG003 (50 μM, dissolved in DMSO), with DMSO or left untreated. Cell viability was evaluated at the indicated time points using the WST-1 assay, according to the manufacturer's instructions. Shown are the mean values from three replicates. Error bars indicate the standard deviation.
Determination of host cell viability upon siRNA transfection was performed using cell proliferation assay WST-1 (Roche, Mannheim, Germany). WST-1 reagent was added to the cells 48 h after siRNA transfection and incubated at 37° C. for 1.5 h. Absorbance was measured at 460 nm and at the reference wavelength 590 nm. Non-targeting siRNA Allstars and siPLK1 were used as a […].

[1] = system: viral M1 and M2 mRNA (influenza A/WSN/33); type: cell-based, influenza A virus
[2] = system: vesicular stomatitis virus (VSV); type: cell-based; settings: TG003 50 μM, A549 pretreated 24 h, VSV MOI 0.01, 24 h p.i.
[3] = system: viral M1 and M2 protein (influenza A/WSN/33); type: cell-based, influenza A virus
[4] = system: influenza A/Hamburg/04/2009 (H1N1) virus; type: cell-based
[5] = system: influenza A/WSN/33 (H1N1) virus; type: cell-based

| Compound | toxic effects (cell viability, WST-1) (A549 cells) | levels of spliced M2 viral RNA [1] | unspliced M1 and NS1/NS2 viral RNA [1] | replication of vesicular stomatitis virus (VSV) [2] | M1 protein levels [3] | M2 protein levels [3] | normalised inhibition of infectious virus particles, siRNA1 [4] | normalised inhibition of infectious virus particles, siRNA2 [4] | normalised inhibition of infectious virus particles, siRNA3 [4] | normalised inhibition of infectious virus particles, siRNA4 [4] | normalised inhibition of infectious virus particles, siRNA1 [5] | normalised inhibition of infectious virus particles, siRNA2 [5] | normalised inhibition of infectious virus particles, siRNA3 [5] | normalised inhibition of infectious virus particles, siRNA4 [5] |
| --- | --- | --- | --- | --- | --- | --- | --- | --- | --- | --- | --- | --- | --- | --- |
| CCN1/C(=C/C(C)=O)Sc2ccc(OC)cc21 [TG003] | without exerting detectable toxic effects | reduced | unaffected | only slightly reduced | remained relatively constant | drastically reduced | – | – | – | – | – | – | – | – |
| WNT3A | – | – | – | – | – | – | 0.53 | 0.4 | 0.91 | 1.1 | 0.36 | −0.16 | 0.64 | 0.81 |
